Laboratory results from patent US20150223463A1, “SPIROCYCLIC ISOXAZOLINE DERIVATIVES FOR TREATMENT OF SEA LICE” (Zoetis LLC, priority 2012, published 2015).

System: Lepeophtheirus salmonis (sea lice)
Assay: Sea lice bioassay, 24 hours exposure to test compound
Format: in vivo
Conditions: predominantly pre-adult and adult stage, generally chemical resistant strain

CS(=O)(=O)CC(=O)N1CC2(C1)OCc1cc(C3=NOC(c4cc(Cl)c(F)c(Cl)c4)(C(F)(F)F)C3)ccc12 (centres unmarked) [Example 1]
Adult Females (EC50) (adult female sea lice): 0.13 ppb | Adult Males (EC50) (adult male sea lice): 0.08 ppb
